Data set [1] in a line: Competitive slurry experiments of crystalline forms, XRD readout. The following applies: for water activities at which the form is thermodynamically stable: conclusion from the competitive slurries of Table 3; for XRD result of competitive slurry: about 5-7 days. The class given is physicochemical. As to the method:
The following competitive slurry experiments were performed using inventive anhydrous Form B and monohydrate Form A disclosed in U.S. Pat. No. 9,969,747.
Aqueous mixtures were created and tested in duplicate for water activity at ambient temperature. Amorphous Pelabresib was used to create a saturated solution in the respective solvent. The supernatant was added to solids of monohydrate Form A and anhydrous Form B and allowed to stir at the respective temperature for about 5-7 days. In all samples except for the butanol:water mixture, a small quantity of Form C was also added to the competitive slurry. Form C can be prepared by slurring amorphous pelabresib in water:ethanol (90:10) for about 5 days The results of the competitive slurries are shown below in Table 3.

A short description of data set [2]: Dynamic vapor sorption (DVS). The class given is physicochemical.
Data set [3] can be described thus: in vivo. Details: species or system beagle dogs. The following applies: male, beagle, dog, po, 5 mg/kg. As to the method:
Single dose PK parameters in plasma were determined following oral gavage administration of micronized anhydrous Form B at 5 mg/kg to male beagle dogs (n=6/Group) in 0.5% (w/v) aqueous Methocel (4000 cps). The dose volume of PO groups was 2 mL/kg. For intravenous (0.5 mg/kg) and oral gavage (5 mg/kg), plasma samples were collected at the following time points: 0, 0.25, 0.5, 1, 2, 4, 6, 8, 12, 24 h post dose and analyzed. […] (5 mg/kg, 2.5 mg/mL, suspension).

Structures are written as SMILES.

With `Cc1noc2c1-c1ccccc1C(c1ccc(Cl)cc1)=N[C@H]2CC(N)=O` (single isomer, unassigned) [Form A, reference compound], in data set [1], the “water activities at which the form is thermodynamically stable” value was at least 97%.
Take `Cc1noc2c1-c1ccccc1C(c1ccc(Cl)cc1)=N[C@H]2CC(N)=O` (single isomer, unassigned) [Form B]: the “hygroscopicity by DVS” value in data set [2] (DVS profile, FIG. 3) was “non-hygroscopic”. For the same compound, the “weight gain (DVS)” value in data set [2] (at 95% RH) is given as “about 0.5%”. In data set [3], the AUC(0-t) (commonly the area under the concentration-time curve up to a stated or last time point) was 12100 ± 1450 ng·h/mL, the highest level (Cmax) was 1750 ± 225 ng/mL and the Tmax (commonly the time at which the peak concentration occurs) stood at 1.17 ± 0.41 h. The “water activities at which the form is thermodynamically stable” value in data set [1] was at most 72%.
Regarding `Cc1noc2c1-c1ccccc1C(c1ccc(Cl)cc1)=N[C@H]2CC(N)=O` [Pelabresib, 2-((4S)-6-(4-chlorophenyl)-1-methyl-4H-benzo[c]isoxazolo[4,5-e]azepin-4-yl)acetamide], the “XRD result of competitive slurry” value in data set [1] (Form A + Form B (no Form C), 2-butanol:water (95:5), water activity 0.72, 40° C.) is on record as “Form B”; in data set [1] (Form A + Form B (no Form C), 2-butanol:water (95:5), water activity 0.72, RT), “Form B”; in data set [1] (Form A + Form B + small quantity of Form C, EtOH:water (90:10), water activity 0.54, 40° C.), “Form B”; in data set [1] (Form A + Form B + small quantity of Form C, EtOH:water (90:10), water activity 0.54, RT), “Form B”; in data set [1] (Form A + Form B + small quantity of Form C, IPA:water (98:2), water activity 0.27, 40° C.) it was “Form B + small peak”; in data set [1] (Form A + Form B + small quantity of Form C, IPA:water (98:2), water activity 0.27, RT), “Form B”. The “XRD result of competitive slurry” value in data set [1] (Form A + Form B + small quantity of Form C, THF:water (10:90), water activity 0.97, 40° C.) is on record as “Form A”; in data set [1] (Form A + Form B + small quantity of Form C, THF:water (10:90), water activity 0.97, RT) it was “Form C”.

These data come from patent US20250122217A1, “ANHYDROUS CRYSTALLINE FORMS OF 2-((4S)-6-(4-CHLOROPHENYL)-1-METHYL-4H-BENZO[C]ISOXAZOLO[4,5-E]AZEPIN-4-YL)ACETAMIDE” (CONSTELLATION PHARMACEUTICALS. INC., priority 2022, published 2025).
